Experimental data: patent US20110236874A1, “METHOD FOR FORMATION OF RENAL TUBULES” (priority 2008, published 2011)
Entries after “also recorded” stand apart in the source; their conditions may differ.

How the values were obtained:
[1] = system: Human proximal tubules formed on 2D solid surfaces; assay: Transport assays with fluorescent substrates in tubules formed on 2D solid surfaces; format: cell-based; details: 20 h incubation, lucifer yellow 80 μM, rhodamine 123 10 μM, 5,6-carboxyfluorescein 5 μM, BODIPY FL verapamil 5 μM
Experimental: Transport assays: Tubules formed 1-2 weeks after seeding were cultivated in phenol red-free medium supplemented with 80 μM of lucifer yellow (Sigma Aldrich Chemical Corp, Singapore), 10 μM of rhodamine 123 (Invitrogen, Singapore), 5 μM of 5,6-carboxydichlorofluorescein diacetate (5,6-carboxyfluorescein) (Invitrogen) or 5 μM of BODIPY FL verapmil (Invitrogen). Tubules were fixed after 20 h of incubation, and subsequently stained with 4′,6′-diamidino-2′-phenylindole (DAPI).
FIG. 11: Organic anion transport. Human proximal tubules formed on 2D solid surfaces were incubated for 20 h with the organic anions lucifer yellow (A, B; green), rhodamine 123 (C; red), 5,6-carboxyfluorescein (D; green) and BODIPY FL verapamil (F; green). Tubules are fixed before imaging, and the cell nuclei are counterstained with DAPI (blue). […] The arrowhead points to a region that is enlarged in the inset. The DAPI-stained nuclei of the outer cell layer are on the right in the inset. […] Scale bars: 100 μm.

[2] = system: primary rabbit renal proximal tubule cells; details: added to confluent rabbit cell cultures for at least 72 hours; TGF-β1 10 ng/ml, EGF 1 nM, RA 0.1 μM; cited from earlier work
[3] = system: primary human renal proximal tubule cells (HPTCs); assay: TGF-β1 treatment of confluent HPTC monolayers in complete HPTC medium; format: cell-based
Experimental: Cell culture: Different batches of HPTCs were obtained from ScienCell Research Laboratories (Carlsbad, Calif., USA). Cells were cultivated in basal epithelial cell medium supplemented with 2% fetal bovine serum (FBS) and 1% epithelial cell growth supplement (ScienCell Research Laboratories). In some experiments, TGF-β1 (R&D Systems, Minneapolis, Minn., USA) was added at a concentration of 10 ng/ml after monolayer formation.
FIG. 17: Growth factor expression and effects of TGF-β1. (A) The expression levels of TGF-β1, α-SMA, LIF, FGF2, KGF and HGF are monitored over a period of 4 weeks. […] Panels B-D show the cells treated for 3 days with 10 ng/ml TGF-β1 after monolayer formation. […] Scale bar: 500
A fourth experimental series was performed with our HPTC medium containing all supplements including FBS. HPTCs were grown to confluency and then treated with TGF-β1 (10 ng/ml; same concentration as used for the rabbit cells). After three days massive cords and aggregates of cells with an elongated, myofibroblastic morphology had formed in 6/6 wells. Although in the complete HPTC medium with FBS, cords and cell aggregates also form without the addition of extra TGF-β1, such structures formed more consistently after addition of TGF-β1. […]

[4] = system: primary human renal proximal tubule cells (HPTCs); assay: TGF-β1 treatment of confluent HPTC patches in Humes basal medium; format: cell-based; details: 10 ng/ml TGF-β1 on confluent patches in Humes basal medium
Experimental: The Humes et al. method used primary rabbit proximal tubule cells. The references indicate three factors are necessary in the growth medium for 2D tubulogenesis: (i) transforming growth factor (TGF)-β1; (ii) epidermal growth factor (EGF); and all-trans retinoic acid (RA). The method involves cultivation of primary rabbit renal proximal tubule cells in the following medium: Dulbecco's modified Eagle's:Ham's F-12 media (1:1, v/v) containing L-glutamine, penicillin, streptomycin, 50 nM hydrocortisone, 5 μg/ml of insulin, and 5 μg/ml of transferrin, referred to herein as Humes basal medium.
In a second set of experiments cells were again cultivated in Humes basal medium. In accordance with the previous results, massive cell death occurred although some cells survived and formed some confluent patches after 2 weeks. By this time cell growth was very slow and overall confluency could not be achieved. However, the confluent patches were treated with 10 ng/ml TGF-β1 in accordance with the Humes et al. method.

| Molecule | localisation of the fluorescent substrate after incubation (transport across tubular epithelium) [1] | structures formed from confluent monolayer [2] | also measured |
| --- | --- | --- | --- |
| 5,6-carboxydichlorofluorescein diacetate [5,6-carboxyfluorescein] | enriched in the tubular interior; also recorded: became enriched in the tubular lumen |  |  |
| CC1=C(/C=C/C(C)=C/C=C/C(C)=C/C(=O)O)C(C)(C)CCC1 [RA, all-trans retinoic acid] |  | no dramatic effects on the monolayer |  |
| BODIPY FL verapamil | enriched in the cytoplasm of tubular and monolayer cells |  | localisation of the fluorescent substrate after incubation (transport across tubular epithelium) ([1]; listed as BOPIPY FL verapamil): became enriched within the cells |
| EGF: epidermal growth factor (NSDSECPLSHDGYCLHDGVCMYIEALDKYACNCVVGYIGERCQYRDLKWWELR; UniProt P01133 971-1023, looked up) |  | no dramatic effects on the monolayer |  |
| TGF-β1: transforming growth factor β1 (R&D Systems), 10 ng/ml |  | formation of solid aggregates of adherent cells (no lumen) | wells with massive cords and aggregates of cells of myofibroblastic morphology ([3]; 10 ng/ml TGF-β1, after three days, complete HPTC medium with FBS): 6/6; effect on the monolayer ([3]; 10 ng/ml TGF-β1 for 3 days after monolayer formation): induces rearrangements leading to the formation of condensed stripes of cells and areas devoid of cells; also recorded: rearrangement of the monolayer into a condensed stripe of cells and to the formation of cell aggregates; effect on the monolayer, cord and tubule formation [4]: no obvious effect on the monolayer and no cord and tubule formation was observed |
| lucifer yellow | the lumen is strongly labeled; also recorded: became enriched in the tubular lumen |  |  |
| rhodamine 123 | became enriched in the tubular lumen |  | localisation of the fluorescent substrate after incubation (transport across tubular epithelium) ([1]; listed as Rhodamine 123): enriched in the tubular lumen |
